Data published in a compilation of properties of binary mixtures (doi:10.1007/s10973-023-12194-1).

Assay: xn = mol fraction of the nth substance listed
Settings: 101.3 kPa

CCCC[NH3+].O=[N+]([O-])[O-] + O
x2 = 0.435
Settings | viscosity [mPa·s]
283.15 K | 43.41
288.15 K | 35.87
293.15 K | 29.92
303.15 K | 21.45
308.15 K | 18.52
313.15 K | 16.04
318.15 K | 14.65
323.15 K | 12.38
328.15 K | 11.26
333.15 K | 9.535
338.15 K | 8.605
343.15 K | 7.11
348.15 K | 6.46
353.15 K | 5.89
358.15 K | 5.4
363.15 K | 4.98
368.15 K | 4.6
373.15 K | 4.266

CC[NH3+].O=[N+]([O-])[O-] + O
x2 = 0.574
Settings | viscosity [mPa·s]
283.15 K | 8.965
288.15 K | 6.679
293.15 K | 6.018
298.15 K | 5.487
313.15 K | 4.258
318.15 K | 3.893
323.15 K | 3.622
333.15 K | 3.173
338.15 K | 3.007
348.15 K | 1.807
353.15 K | 1.695
358.15 K | 1.589
363.15 K | 1.492
368.15 K | 1.434
373.15 K | 1.343
